The source of these data is patent US10316038B2, “Pyrrolopyrimidine ITK inhibitors for treating inflammation and cancer” (ACLARIS THERAPEUTICS, INC., priority 2017, dated 2019).

Each structure is given as a SMILES string. Bounds are passed on as bounds.

Test [1] relates to ITK phosphorylation of its substrate, PLCγ1, at Y783. The test is described as follows: ITK target modulation assay (phospho-Y783 PLCγ1 immunoblot in Jurkat T cells). Type of test: cell-based. The note with it: Homo sapiens, Jurkat, 2 h, 2 hours compound, CD3/CD28 Dynabeads stimulation 100 sec, anti-phospho-Y783 PLCγ1 immunoblot, read-out: PLC-γ Inhibition IC50. The method, then: Target modulation was based upon the ability of a compound to inhibit ITK phosphorylation of its substrate, PLCγ1, at […]. Human Jurkat T cells were placed in snap-cap polypropylene tubes at 4 million per tube in 800 μL medium (RPMI1640 with 10% heat inactivated serum and […] 2-mercaptoethanol and supplemented with glutamine/penicillin/streptomycin). Compounds were added as 100 μL of 10× working stock solutions in medium with 1% DMSO (or medium with 1% DMSO for controls) and placed in a 37° C. incubator for 2 hours. Stimulation was carried out using CD3/CD28 Dynabeads to activate the T cell receptor and mimic antigen presenting cells. Beads were added for 100 sec at a ratio of 1 bead per cell, in 100 μL medium (or medium alone for unstimulated control). Starting at 70 sec, cells and beads were pelleted in a microfuge for 15 sec, the supernatant aspirated, and 50 μL lysis buffer was added per tube and mixed with the pellet at the 100 sec time point. Tubes were placed on a rotator for 30 min at 4° C., and cell debris was pelleted in a microfuge. Supernatant was mixed 1:1 with 2× Sample Buffer and subjected to SDS-polyacrylamide gel electrophoresis. After transfer to nitrocellulose, immunoblotting was done with anti-phospho-[…] PLCγ1 antibody. Immunoblots were visualized with ECL using horseradish peroxidase conjugated secondary antibody.

The next test deals with T1, ITK (Homo sapiens, UniProt Q08881).
T1 sequence (Q08881 1-620): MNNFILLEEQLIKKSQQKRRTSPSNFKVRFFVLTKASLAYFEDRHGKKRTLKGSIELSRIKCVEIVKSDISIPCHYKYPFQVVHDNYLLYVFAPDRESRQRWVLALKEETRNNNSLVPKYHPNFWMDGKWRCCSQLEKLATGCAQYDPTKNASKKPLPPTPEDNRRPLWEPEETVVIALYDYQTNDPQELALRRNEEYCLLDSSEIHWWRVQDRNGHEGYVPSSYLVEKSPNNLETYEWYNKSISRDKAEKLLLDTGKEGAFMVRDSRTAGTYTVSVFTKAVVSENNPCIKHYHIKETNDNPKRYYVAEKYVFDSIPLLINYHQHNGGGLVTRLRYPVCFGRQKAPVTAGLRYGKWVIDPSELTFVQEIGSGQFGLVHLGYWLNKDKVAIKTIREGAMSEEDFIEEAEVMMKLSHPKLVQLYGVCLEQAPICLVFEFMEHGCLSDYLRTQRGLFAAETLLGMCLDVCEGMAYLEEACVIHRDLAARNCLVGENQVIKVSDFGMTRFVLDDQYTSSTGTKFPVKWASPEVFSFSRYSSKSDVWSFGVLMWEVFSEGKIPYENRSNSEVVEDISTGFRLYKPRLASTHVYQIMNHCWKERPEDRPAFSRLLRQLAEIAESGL
In words: ITK inhibitor binding potency (LanthaScreen competitive binding assay). To be noted: TR-FRET competitive binding, 10 nM ITK, 50 nM kinase tracer-236; pre-incubation condition not given; read-out: ITK Inhibition IC50. The source says:
The ability of candidate compounds to interact with ITK is quantitated by a competitive binding assay using the LanthaScreen technology developed by Life Technologies. This assay is based on the binding of a proprietary, Alexa Fluor™ 647-labeled, ATP-competitive kinase inhibitor (kinase tracer-236) to the ITK expression construct in the presence of a Europium-conjugated antibody, resulting in a FRET (fluorescence resonance energy transfer) signal. Displacement of the kinase tracer by compound results in a lower emission ratio upon excitation of the Europium chelate. Candidate compounds are designed as potential irreversible inhibitors of ITK, capable of ligating to an active site cysteine residue resulting in time dependent covalent binding. The time dependent nature of irreversible inhibition is investigated by performing the binding assay with and without a pre-incubation of compound and ITK. […] The inhibitory potency of candidate compounds is measured in 20 mM HEPES pH 7.5, 10 mM MgCl2, 0.01% BSA, 0.0005% Tween-20, and 2% DMSO in the presence of 10 nM ITK, 2 nM Eu-anti-GST antibody, and 50 nM kinase tracer-236 using a 384-well plate format. Background signal is defined in the absence of ITK and uninhibited signal is defined in the presence of vehicle (2% DMSO) alone. Compounds were evaluated in an 11 point dose-response ranging from 20 uM to 0.34 nM. The binding assays are performed under two preincubation conditions to evaluate time dependence of inhibition. For the pre-incubation assay, ITK and Eu-anti-GST antibody are pre-incubated with compound or vehicle for two hours prior to the addition of kinase tracer. The non-preincubated assay is run under conditions where ITK and Eu-anti-GST antibody are added to a mixture of compound and kinase tracer. IC50 values of compounds are determined using a 4 parameter logistical fit of emission ratio as a function of the concentration of compound.

In the case of `COc1cc(NC(=O)/C=C/CN(C)C)cc(-c2cnc3[nH]cc(-c4ccnc(C#N)c4)c3c2)c1` [Example 39, (E)-N-(3-(3-(2-cyanopyridin-4-yl)-1H-pyrrolo-[2,3-b]pyridin-5-yl)-5-methoxy-phenyl)-4-(dimethylamino)-but-2-enamide], the half-inhibitory concentration (IC50) in test [1] was at most 1000 nM; at ITK, at most 100 nM.
With `CN(C)C/C=C/C(=O)Nc1cc(-c2cnc3[nH]cc(-c4ccnc(C#N)c4)c3c2)cc(C(F)(F)F)c1` [Example 40, (E)-N-(3-(3-(2-cyanopyridin-4-yl)-1H-pyrrolo-[2,3-b]pyridin-5-yl)-5-(trifluoro-methyl)phenyl)-4-(dimethyl-amino)but-2-enamide], the IC50 in test [1] is at most 1000 nM; on ITK, at most 100 nM.
Regarding `C=CC(=O)Nc1cc(OC)cc(-c2cnc3[nH]cc(-c4ccnc(NC)n4)c3c2)c1` [Example 41, N-(3-methoxy-5-(3-(2-(methyl-amino)pyrimidin-4-yl)-1H-pyrrolo-[2,3-b]pyridin-5-yl)phenyl)acryl-amide], the values for the IC50 (in test [1]; at ITK) were at most 1000 nM and at most 100 nM, respectively.
As for `Cc1cc(-c2c[nH]c3ncc(-c4cncc(NC(=O)/C=C/CN(C)C)c4)cc23)ccn1` [Example 42, (E)-4-(dimethyl-amino)-N-(5-(3-(2-methylpyridin-4-yl)-1H-pyrrolo-[2,3-b]pyridin-5-yl)pyridin-3-yl)-but-2-enamide], the IC50 in test [1] is at most 1000 nM; at ITK, at most 100 nM.
`C=CC(=O)Nc1cccc(-c2cnc3[nH]cc(-c4cccc(C#N)c4)c3c2C)c1` [Example 43, N-(3-(3-(3-cyano-phenyl)-4-methyl-1H-pyrrolo[2,3-b]pyridin-5-yl)-phenyl)acrylamide]: the IC50 in test [1] was at most 1000 nM; at ITK it was at most 100 nM.
As to `C=CC(=O)Nc1cccc(-c2cnc3[nH]cc(-c4ccnc(C#N)c4)c3c2C)c1` [Example 44, N-(3-(3-(2-cyano-pyridin-4-yl)-4-methyl-1H-pyrrolo[2,3-b]-pyridin-5-yl)-phenyl)acrylamide], the IC50 is at most 1000 nM in test [1] and at most 100 nM at ITK.
In the same order, the values of `CN(C)C/C=C/C(=O)Nc1cncc(-c2cnc3[nH]cc(-c4ccnc(F)c4)c3c2)c1` [Example 45, (E)-4-(dimethyl-amino)-N-(5-(3-(2-fluoropyridin-4-yl)-1H-pyrrolo-[2,3-b]pyridin-5-yl)pyridin-3-yl)-but-2-enamide] are at most 1000 nM and at most 100 nM.
In the case of `CNc1nccc(-c2c[nH]c3ncc(-c4cc(NC(=O)/C=C/CN(C)C)cc(OC)c4)cc23)n1` [Example 46, (E)-4-(dimethyl-amino)-N-(3-methoxy-5-(3-(2-(methylamino)-pyrimidin-4-yl)-1H-pyrrolo[2,3-b]-pyridin-5-yl)-phenyl)but-2-enamide], the 50% inhibitory concentration (IC50) in test [1] was 1000 to 5000 nM; at ITK it was at most 100 nM.
Turning to `C=CC(=O)Nc1cc(OC(F)(F)F)cc(-c2cnc3[nH]cc(-c4cccc(C#N)c4)c3c2)c1` [Example 47, N-(3-(3-(3-cyano-phenyl)-1H-pyrrolo[2,3-b]-pyridin-5-yl)-5-(trifluoromethoxy)-phenyl)acrylamide], the IC50 in test [1] was 1000 to 5000 nM; on ITK it was at most 100 nM.
In the same order, the values of `Cc1cc(-c2c[nH]c3ncc(-c4cccc(NC(=O)/C=C/CN(C)C)c4)cc23)ccn1` [Example 48, (E)-4-(dimethyl-amino)-N-(3-(3-(2-methylpyridin-4-yl)-1H-pyrrolo-[2,3-b]pyridin-5-yl)phenyl)but-2-enamide] are at most 1000 nM and at most 100 nM.
On the same counts, the results for `CN(C)C/C=C/C(=O)Nc1cc(-c2cnc3[nH]cc(-c4ccncn4)c3c2)cc(C(F)(F)F)c1` [Example 49, (E)-4-(dimethyl-amino)-N-(3-(3-(pyrimidin-4-yl)-1H-pyrrolo[2,3-b]pyridin-5-yl)-5-(trifluoro-methyl)phenyl)-but-2-enamide] are at most 1000 nM and at most 100 nM.
On the same counts, the results for `C=CC(=O)Nc1cncc(-c2cnc3[nH]cc(-c4ccncn4)c3c2)c1` [Example 50, N-(5-(3-(pyrimidin-4-yl)-1H-pyrrolo-[2,3-b]pyridin-5-yl)pyridin-3-yl)acrylamide] are at most 1000 nM and at most 100 nM.
Turning to `C=CC(=O)Nc1cc(OC)cc(-c2cnc3[nH]cc(-c4ccnc(C#N)c4)c3c2)c1` [Example 51, N-(3-(3-(2-cyano-pyridin-4-yl)-1H-pyrrolo[2,3-b]-pyridin-5-yl)-5-methoxyphenyl)-acrylamide], the half-inhibitory concentration (IC50) in test [1] is above 5000 nM; at ITK, at most 100 nM.
In the case of `COc1cc(NC(=O)/C=C/CN(C)C)cc(-c2cnc3[nH]cc(-c4ccncn4)c3c2)c1` [Example 52, (E)-4-(dimethyl-amino)-N-(3-methoxy-5-(3-(pyrimidin-4-yl)-1H-pyrrolo-[2,3-b]pyridin-5-yl)phenyl)but-2-enamide], the concentration for half-maximal inhibition (IC50) in test [1] was 1000 to 5000 nM; at ITK, at most 100 nM.
For `COc1cc(NC(=O)/C=C/CN(C)C)cc(-c2cnc3[nH]cc(-c4ccncc4)c3c2)c1` [Example 53, (E)-4-(dimethyl-amino)-N-(3-methoxy-5-(3-(pyridin-4-yl)-1H-pyrrolo[2,3-b]pyridin-5-yl)phenyl)but-2-enamide], the concentration for half-maximal inhibition (IC50) was at most 1000 nM in test [1] and at most 100 nM at ITK.
In the same order, the values of `CN(C)C/C=C/C(=O)Nc1cc(-c2cnc3[nH]cc(-c4ccnc5[nH]ccc45)c3c2)cc(C(F)(F)F)c1` [Example 54, (E)-N-(3-(1H,1′H-[3,4′-bipyrrolo-[2,3-b]pyridin]-5-yl)-5-(trifluoro-methyl)phenyl)-4-(dimethylamino)-but-2-enamide] are 1000 to 5000 nM and at most 1000 nM.
As to `CN(C)C/C=C/C(=O)Nc1cc(-c2cnc3[nH]cc(-c4ccnc5c4ccn5C)c3c2)cc(C(F)(F)F)c1` [Example 55, (E)-4-(dimethyl-amino)-N-(3-(1′-methyl-1H,1′H-[3,4′-bipyrrolo[2,3-b]pyridin]-5-yl)-5-(trifluoro-methyl)phenyl)-but-2-enamide], the figures for the IC50 (in test [1]; on ITK) were at most 1000 nM and at most 100 nM, respectively.
In the same order, the values of `COc1cc(-c2c[nH]c3ncc(-c4cc(NC(=O)/C=C/CN(C)C)cc(C(F)(F)F)c4)cc23)ccn1` [Example 56, (E)-4-(dimethyl-amino)-N-(3-(3-(2-methoxy-pyridin-4-yl)-1H-pyrrolo[2,3-b]-pyridin-5-yl)-5-(trifluoromethyl)-phenyl)but-2-enamide] are at most 1000 nM and at most 100 nM.
In the case of `CN(C)C/C=C/C(=O)Nc1cncc(-c2cnc3[nH]cc(-c4ccncn4)c3c2)c1` [Example 57, (E)-4-(dimethyl-amino)-N-(5-(3-(pyrimidin-4-yl)-1H-pyrrolo[2,3-b]pyridin-5-yl)-pyridin-3-yl)but-2-enamide], the IC50 in test [1] was above 5000 nM; at ITK, at most 100 nM.
As to `C=CC(=O)Nc1cc(-c2cnc3[nH]cc(-c4cccc(Cl)c4)c3c2)cc(C(F)(F)F)c1` [Example 58, N-(3-(3-(3-chloro-phenyl)-1H-pyrrolo[2,3-b]-pyridin-5-yl)-5-(trifluoro-methyl)phenyl)-acrylamide], the figures for the IC50 (in test [1]; on ITK) were above 5000 nM and at most 1000 nM, respectively.
